From article PMC7181703, “Using proteolysis-targeting chimera technology to reduce navitoclax platelet toxicity and improve its senolytic activity” (Nature Communications, 2020)
Read-outs that look alike come from different tables or passages of the source.

How the values were obtained:
[1] = target: T1, Bcl-w (Homo sapiens, UniProt Q92843); test: biochemical; set-up: AlphaLISA competitive displacement of biotin-tagged BAD or BIM peptide from His-tagged Bcl-2 family protein
T1 construct: gene BCL2L2; Purified recombinant His-tagged Bcl-w
T1 sequence (Q92843 2-193): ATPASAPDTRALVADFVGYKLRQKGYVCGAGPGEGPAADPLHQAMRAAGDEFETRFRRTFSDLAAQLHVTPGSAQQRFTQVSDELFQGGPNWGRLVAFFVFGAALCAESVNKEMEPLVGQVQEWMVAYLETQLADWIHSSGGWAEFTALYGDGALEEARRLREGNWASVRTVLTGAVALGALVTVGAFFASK
Method: Purified recombinant His-tagged Bcl-xl, His-tagged Bcl-2 and His-tagged Bcl-w (Cat. No. SRP0187 for Bcl-xl, Cat. No. SRP0186 for Bcl-2 and Cat. No. B1059 for Bcl-w, Sigma-Aldrich) were incubated with increasing concentrations of compounds and a fixed concentration of biotin-tagged BAD (Cat No. SQ-ASPE-66592-1, AnaSpec, Fremont, CA) (for Bcl-xl) or BIM (Cat. No. SQ-ASPE-66592-2, AnaSpec) (for Bcl-2 and Bcl-w) peptides to a final volume of 40 µL in 96-well PCR plates. After 24 h incubation, 5 µL 6X His-Acceptor beads (final concentration 20 µg/mL) (Cat. No. AL128M, Perkin-Elmer, Waltham, MA, USA) were added to each well and incubated for 1 h. Thereafter, 5 µL streptavidin-donor beads were added (final concentration of 20 µg/mL) (Cat. No. 6760002, Perkin-Elmer) to each well and incubated for 30 min. At the end of the incubation period, 17 µL of each sample was transferred into adjacent wells of 384-well proxy plate (Cat. No. 6008280, Perkin-Elmer). The plate was scanned using Alpha program on a Biotek’s Synergy Neo2 multi-mode plate reader (Winooski, VT, USA). Gen5 version 3.04 software (BioTek, USA) was used for the AlphaLISA signal measurements. The inhibition constant (Ki) was calculated using non-linear regression, one site, competitive binding, fit Ki function on GraphPad Prism 7 software based on experimentally determined Kd for each protein/peptide pair.

[2] = target: T2, Bcl-xl (Homo sapiens, UniProt Q07817); test: AlphaLISA/AlphaScreen competitive binding with biotin-tagged BAD peptide
T2 construct: gene BCL2L1; Purified recombinant His-tagged Bcl-xl

[3] = target: cereblon (CRBN) (Homo sapiens, UniProt Q96SW2); test: CRBN-dependent Bcl-xl degradation in WI38 cells: CRBN knockout, pomalidomide competition, N-methyl negative control; format: cell-based
[4] = target: T3, Bcl-2 (Homo sapiens, UniProt P10415); set-up: AlphaLISA competitive displacement of biotin-tagged BAD or BIM peptide from His-tagged Bcl-2 family protein; conditions: inhibitor
T3 construct: gene BCL2; Purified recombinant His-tagged Bcl-2

Compound: CC1(C)CCC(c2ccc(Cl)cc2)=C(CN2CCN(c3ccc(C(=O)NS(=O)(=O)c4ccc(N[C@H](CCN5CCOCC5)CSc5ccccc5)c(S(=O)(=O)C(F)(F)F)c4)cc3)CC2)C1 [ABT263]
- Ki [1]: 8.5 nM

Compound: CC1(C)CCC(c2ccc(Cl)cc2)=C(CN2CCN(c3ccc(C(=O)NS(=O)(=O)c4ccc(N[C@H](CCN5CCN(C(=O)CCCn6cc(COCCOCCNc7cccc8c7C(=O)N(C7CCC(=O)NC7=O)C8=O)nn6)CC5)CSc5ccccc5)c(S(=O)(=O)C(F)(F)F)c4)cc3)CC2)C1 (some centres unmarked) [PZ, PZ15227]
- Ki [2]: 1.9 nM
- Ki ([1]; inhibitor): > 1000 nM
- CRBN-dependent Bcl-xl degradation in WI38 cells: CRBN knockout, pomalidomide com [3]: PZ had no effect on the levels of Bcl-xl in CRBN knockout cells (Fig. 2e)
- Ki [4]: 3.52 nM
